Experimental data published in publication PMC11062922 (Nature Chemical Biology, 2023).
Where two headings read alike, the source gives them in different places. Values belong to the molecule of their own block, whether it stands above or below them.

Experiments:
[1] = target: T1, endogenous kinases and other proteins enriched by Kinobeads from mixed lysates of K-562, COLO-205, MV-4-11, SK-N-BE(2) and OVCAR-8 (Homo sapiens, UniProt Q8NI60); assay: Kinobeads competition binding profiling, two doses (100 nM and 1 µM); details: target ADCK3; read-out: apparent Kd;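 note: inhibitor preincubated 45 min at 4 °C in cell lysate, then bead pulldown. Bound protein quantified by label-free mass spectrometry relative to DMSO vehicle control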
T1 construct: to maximize the representation of endogenous proteins; endogenous in cells

AAK1 = target: T2, AAK1 (Homo sapiens, UniProt Q2M2I8); assay: Kinobeads two-dose competition binding: AAK1;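 note: kinobeads competition pulldown from cell lysate, compound preincubated 45 min at 4 °C, bead-bound protein measured by label-free mass spectrometry against DMSO vehicle control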
T2 construct: to maximize the representation of endogenous proteins; endogenous in cells

ABL2 [2] = target: T3, ABL2 (Homo sapiens, UniProt P42684); assay: Kinobeads two-dose competition binding: ABL2; details: sheet "Kinobeads Drugmatrix - all"; unit inferred; read-out: Kinobeads Drugmatrix - all: apparent Kd, ABL2
T3 construct: endogenous in cells

ACAD11 [3] = target: T4, ACAD11 (Homo sapiens, UniProt Q709F0); assay: Kinobeads two-dose competition binding: ACAD11; details: sheet "Kinobeads Drugmatrix - all"; unit inferred; read-out: Kinobeads Drugmatrix - all: apparent Kd, ACAD11
T4 construct: endogenous in cells
T4 sequence (Q709F0 1-780): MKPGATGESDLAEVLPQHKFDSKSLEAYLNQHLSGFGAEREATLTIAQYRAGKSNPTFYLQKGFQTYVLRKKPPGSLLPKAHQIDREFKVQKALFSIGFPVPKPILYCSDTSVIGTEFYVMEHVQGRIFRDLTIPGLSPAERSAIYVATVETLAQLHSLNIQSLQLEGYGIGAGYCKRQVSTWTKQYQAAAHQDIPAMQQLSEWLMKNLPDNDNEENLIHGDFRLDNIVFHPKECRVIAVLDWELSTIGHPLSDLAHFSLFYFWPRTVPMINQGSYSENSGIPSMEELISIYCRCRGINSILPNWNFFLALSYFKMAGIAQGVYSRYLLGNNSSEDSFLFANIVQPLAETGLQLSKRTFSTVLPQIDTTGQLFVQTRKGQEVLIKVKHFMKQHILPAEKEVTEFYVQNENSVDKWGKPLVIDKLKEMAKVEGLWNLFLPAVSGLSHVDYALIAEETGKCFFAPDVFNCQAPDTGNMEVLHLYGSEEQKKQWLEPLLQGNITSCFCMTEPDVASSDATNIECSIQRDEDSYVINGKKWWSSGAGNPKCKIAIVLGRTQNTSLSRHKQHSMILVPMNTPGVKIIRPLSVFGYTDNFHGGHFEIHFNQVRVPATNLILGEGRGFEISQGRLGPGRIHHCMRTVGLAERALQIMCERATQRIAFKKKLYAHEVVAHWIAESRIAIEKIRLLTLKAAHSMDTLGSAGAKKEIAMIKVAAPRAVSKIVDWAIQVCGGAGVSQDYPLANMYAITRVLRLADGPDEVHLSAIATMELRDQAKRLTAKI

[4] = system: endogenous kinases and other proteins enriched by Kinobeads from mixed lysates of K-562, COLO-205, MV-4-11, SK-N-BE(2) and OVCAR-8; assay: Kinobeads competition binding profiling, two doses (100 nM and 1 µM); parameters: species or system human; details: in words;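 note: inhibitor preincubated 45 min at 4 °C in cell lysate, then bead pulldown. Bound protein quantified by label-free mass spectrometry relative to DMSO vehicle control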
ACOX1 = target: T5, ACOX1 (Homo sapiens, UniProt Q15067); assay: Kinobeads two-dose competition binding: ACOX1; details: sheet CATDS matrix 2; Gene Name ACOX1;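 note: competition of compounds with immobilized broad-spectrum kinase inhibitor beads in cell lysate at 100 and 1,000 nM, 45 min at 4 °C, bead-bound protein quantified by label-free MS versus DMSO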
T5 construct: endogenous in cells
T5 sequence (Q15067 1-660): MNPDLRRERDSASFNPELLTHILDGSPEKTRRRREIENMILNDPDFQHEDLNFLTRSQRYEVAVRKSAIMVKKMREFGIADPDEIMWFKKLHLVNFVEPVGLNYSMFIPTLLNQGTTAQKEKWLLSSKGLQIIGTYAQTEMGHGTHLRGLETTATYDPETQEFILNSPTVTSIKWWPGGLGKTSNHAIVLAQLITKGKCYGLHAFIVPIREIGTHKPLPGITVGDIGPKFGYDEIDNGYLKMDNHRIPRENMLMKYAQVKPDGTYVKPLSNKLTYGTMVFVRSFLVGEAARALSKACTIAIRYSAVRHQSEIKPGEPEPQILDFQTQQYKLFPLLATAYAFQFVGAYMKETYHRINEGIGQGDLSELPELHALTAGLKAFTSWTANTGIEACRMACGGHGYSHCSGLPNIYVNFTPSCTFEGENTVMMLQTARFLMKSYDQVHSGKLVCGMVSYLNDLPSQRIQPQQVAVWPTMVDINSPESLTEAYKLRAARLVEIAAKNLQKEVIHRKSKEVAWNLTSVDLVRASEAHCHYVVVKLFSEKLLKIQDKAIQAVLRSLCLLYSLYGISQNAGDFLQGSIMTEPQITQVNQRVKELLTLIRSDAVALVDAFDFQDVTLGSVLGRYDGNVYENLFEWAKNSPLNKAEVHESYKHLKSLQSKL

ABL1 [5] = target: T6, ABL1 (Homo sapiens, UniProt P00519); assay: Kinobeads two-dose competition binding: ABL1; details: sheet CATDS matrix 2; Gene Name ABL1
ABL2 [6] = target: T3, ABL2; assay: Kinobeads two-dose competition binding: ABL2; details: sheet CATDS matrix 2; Gene Name ABL2
ABL1 [7] = target: T6, ABL1; assay: Kinobeads two-dose competition binding: ABL1; details: sheet "Kinobeads Drugmatrix - all"; unit inferred; read-out: Kinobeads Drugmatrix - all: apparent Kd, ABL1
ACAD11 [8] = target: T4, ACAD11; assay: Kinobeads two-dose competition binding: ACAD11; details: sheet CATDS matrix 2; Gene Name ACAD11
XBP1 splicing in cells = system: XBP1 splicing in cells; parameters: method as in chemicalprobes.org; details: ref chemicalprobes.org; read-out: Potency value in cells (IC50); cited from earlier work
ERN1 = target: T7, ERN1 (Homo sapiens, UniProt O75460); parameters: method as in chemicalprobes.org; details: truncated human IRE1 alpha WT (AA 469-977); ref chemicalprobes.org; cited from earlier work
T7 construct: endogenous in cells

[9] = system: IL-10 secretion in primary bone marrow-derived dendritic cells (BMDCs); assay: IL-10 cytokine secretion assay (ELISA) in Zymosan-stimulated primary BMDCs; assay type: cell-based, mouse; details: murine BMDCs, inhibitor 30 min before Zymosan stimulation
Experimental: A subsequent full dose–response experiment confirmed potent and selective binding to SYK ( Kdapp = 58 nM, […] = 0.60; Extended Data Fig. 5a,b). […] One of the effects of Zymosan is that it activates Dectin-1 signaling, in turn activating SYK and leading to increased IL-10 cytokine production (Fig. 3c)[34]. Treatment of cells with the respective SYK inhibitors before Zymosan stimulation indeed led to decreased levels of IL-10 in a dose-dependent fashion (Fig. 3d). […] In line with the cytokine readout, we observed a dose depended reduction of pTyr525/526 indicating SYK inhibition in live cells (Fig. 3e and Extended Data Fig. 5c).
Primary BMDCs were obtained from 9-week-old C57BL/6 mice that were maintained under standard specific pathogen-free conditions. BMDCs were differentiated for 7 days in Roswell Park Memorial Institute medium (Gibco) and granulocyte-macrophage colony-stimulating factor. On day seven, BMDCs were seeded in 96-well plates at 10^5 cells per well in 100 µl of culture medium followed by incubation for 4 h at 37 °C. Subsequently, cells were incubated with SYK inhibitors for 30 min followed by stimulation with Zymosan (final concentration of 50 µg ml^−1; Invivogen) and dispersed in culture medium for 24 h. […] For cytokine secretion quantification, cell culture medium was collected and concentrations of IL-10 in the supernatant were determined using mouse enzyme-linked immunosorbent assay kits (IL-10: Invitrogen) according to the manufacturer’s protocol. Experiments were performed in biological triplicates.

PAK4 = target: T8, PAK4 (Homo sapiens, UniProt O96013); assay: Kinobeads full dose-response competition binding: PAK4; details: Gene Name PAK4, doses in nM
T8 construct: a mixture of lysates from five cancer cell lines; endogenous in cells

PRKCA = target: T9, PRKCA (Homo sapiens, UniProt P17252); assay: Kinobeads full dose-response competition binding: PRKCA; details: Gene Name PRKCA, doses in nM
T9 construct: endogenous in cells

[10] = target: T10, endogenous kinases and other proteins enriched by Kinobeads from mixed lysates of K-562, COLO-205, MV-4-11, SK-N-BE(2) and OVCAR-8 (Homo sapiens, UniProt O43353); assay: Kinobeads competition binding profiling, two doses (100 nM and 1 µM); details: target RIPK2; read-out: apparent Kd;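 note: inhibitor preincubated 45 min at 4 °C in cell lysate, then bead pulldown. Bound protein quantified by label-free mass spectrometry relative to DMSO vehicle control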
T10 construct: to maximize the representation of endogenous proteins; endogenous in cells

[11] = target: T11, endogenous kinases and other proteins enriched by Kinobeads from mixed lysates of K-562, COLO-205, MV-4-11, SK-N-BE(2) and OVCAR-8 (Homo sapiens, UniProt P35916); assay: as above; details: target FLT4; read-out: apparent Kd
T11 construct: endogenous in cells

PKN3 = PKN3 (Homo sapiens, UniProt Q6P5Z2); parameters: full-length PKN3, CSNK2A1 or CSNK2A2 ORF; host or cells: HEK293T; details: reported for the most potent 4-anilinoquin(az)oline; cited from earlier work
[12] = system: CSF1R, FLT3, KIT, PDGFRB, PDGFRA; parameters: method as in chemicalprobes.org; details: 2nd of 4 values listed for 5 targets; ref chemicalprobes.org; read-out: Potency value in cells (IC50); cited from earlier work
[13] = system: CSF1R, FLT3, KIT, PDGFRB, PDGFRA; parameters: method as in chemicalprobes.org; details: ref chemicalprobes.org, cited from earlier work
[14] = target: T12, endogenous kinases and other proteins enriched by Kinobeads from mixed cancer cell lysates (Homo sapiens, UniProt Q86TW2); assay: Kinobeads pulldown, full dose-response (eight doses); assay type: binding; details: target ADCK1; in nM;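 note: competition with Kinobeads ε after inhibitor preincubation in lysate (5 mg/ml protein) for 45 min at 4 °C, DMSO control, doses 0.3–1,000 nM, label-free LC–MS/MS quantification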
T12 construct: endogenous in cells

[15] = target: T13, endogenous kinases and other proteins enriched by Kinobeads from mixed cancer cell lysates (Homo sapiens, UniProt P16083); assay: as above; assay type: binding; details: target NQO2; in nM
T13 construct: endogenous in cells

[16] = target: T14, endogenous kinases and other proteins enriched by Kinobeads from mixed cancer cell lysates (Homo sapiens, UniProt P67870); assay: as above; assay type: binding; details: target CSNK2B; in nM
T14 construct: endogenous in cells

[17] = target: T15, endogenous kinases and other proteins enriched by Kinobeads from mixed cancer cell lysates (Homo sapiens, UniProt P68400); assay: as above; assay type: binding; details: target CSNK2A1;CSNK2A3; in nM
T15 construct: endogenous in cells

[18] = target: T16, endogenous kinases and other proteins enriched by Kinobeads from mixed cancer cell lysates (Homo sapiens, UniProt Q9Y616); assay: as above; assay type: binding; details: target IRAK3; in nM
T16 construct: endogenous in cells

[19] = target: T17, endogenous kinases and other proteins enriched by Kinobeads from mixed cancer cell lysates (Homo sapiens, UniProt P19784); assay: as above; assay type: binding; details: target CSNK2A2; in nM
T17 construct: endogenous in cells

[20] = target: T18, endogenous kinases and other proteins enriched by Kinobeads from mixed cancer cell lysates (Homo sapiens, UniProt O75822); assay: as above; assay type: binding; details: target EIF3J; in nM
T18 construct: to maximize the representation of endogenous proteins; endogenous in cells

LCK = system: LCK; parameters: method as in chemicalprobes.org; details: @ 1 mM ATP, ref chemicalprobes.org; cited from earlier work
[21] = system: Concanavalin A-induced cytokine production in Whole Blood; parameters: method as in chemicalprobes.org; details: ref chemicalprobes.org, read-out: Potency value in cells (EC50); cited from earlier work
[22] = EC50 with Correction, read-out: apparent Kd

T8 sequence (O96013 whole entry): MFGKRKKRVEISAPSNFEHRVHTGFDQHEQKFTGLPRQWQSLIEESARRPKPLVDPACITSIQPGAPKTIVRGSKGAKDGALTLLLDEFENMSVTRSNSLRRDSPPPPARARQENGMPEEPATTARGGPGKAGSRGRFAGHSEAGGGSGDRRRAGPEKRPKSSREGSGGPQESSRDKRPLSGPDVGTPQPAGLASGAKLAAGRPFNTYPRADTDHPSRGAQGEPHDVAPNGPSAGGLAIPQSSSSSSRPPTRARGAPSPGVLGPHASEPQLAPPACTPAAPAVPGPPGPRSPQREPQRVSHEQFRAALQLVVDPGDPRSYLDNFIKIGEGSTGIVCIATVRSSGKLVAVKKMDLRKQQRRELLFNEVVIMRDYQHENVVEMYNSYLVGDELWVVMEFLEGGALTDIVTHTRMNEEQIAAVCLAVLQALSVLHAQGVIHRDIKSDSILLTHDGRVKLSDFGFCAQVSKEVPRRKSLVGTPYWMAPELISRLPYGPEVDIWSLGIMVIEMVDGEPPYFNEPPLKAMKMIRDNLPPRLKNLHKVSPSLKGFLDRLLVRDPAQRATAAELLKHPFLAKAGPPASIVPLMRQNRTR
T3 sequence (P42684 whole entry): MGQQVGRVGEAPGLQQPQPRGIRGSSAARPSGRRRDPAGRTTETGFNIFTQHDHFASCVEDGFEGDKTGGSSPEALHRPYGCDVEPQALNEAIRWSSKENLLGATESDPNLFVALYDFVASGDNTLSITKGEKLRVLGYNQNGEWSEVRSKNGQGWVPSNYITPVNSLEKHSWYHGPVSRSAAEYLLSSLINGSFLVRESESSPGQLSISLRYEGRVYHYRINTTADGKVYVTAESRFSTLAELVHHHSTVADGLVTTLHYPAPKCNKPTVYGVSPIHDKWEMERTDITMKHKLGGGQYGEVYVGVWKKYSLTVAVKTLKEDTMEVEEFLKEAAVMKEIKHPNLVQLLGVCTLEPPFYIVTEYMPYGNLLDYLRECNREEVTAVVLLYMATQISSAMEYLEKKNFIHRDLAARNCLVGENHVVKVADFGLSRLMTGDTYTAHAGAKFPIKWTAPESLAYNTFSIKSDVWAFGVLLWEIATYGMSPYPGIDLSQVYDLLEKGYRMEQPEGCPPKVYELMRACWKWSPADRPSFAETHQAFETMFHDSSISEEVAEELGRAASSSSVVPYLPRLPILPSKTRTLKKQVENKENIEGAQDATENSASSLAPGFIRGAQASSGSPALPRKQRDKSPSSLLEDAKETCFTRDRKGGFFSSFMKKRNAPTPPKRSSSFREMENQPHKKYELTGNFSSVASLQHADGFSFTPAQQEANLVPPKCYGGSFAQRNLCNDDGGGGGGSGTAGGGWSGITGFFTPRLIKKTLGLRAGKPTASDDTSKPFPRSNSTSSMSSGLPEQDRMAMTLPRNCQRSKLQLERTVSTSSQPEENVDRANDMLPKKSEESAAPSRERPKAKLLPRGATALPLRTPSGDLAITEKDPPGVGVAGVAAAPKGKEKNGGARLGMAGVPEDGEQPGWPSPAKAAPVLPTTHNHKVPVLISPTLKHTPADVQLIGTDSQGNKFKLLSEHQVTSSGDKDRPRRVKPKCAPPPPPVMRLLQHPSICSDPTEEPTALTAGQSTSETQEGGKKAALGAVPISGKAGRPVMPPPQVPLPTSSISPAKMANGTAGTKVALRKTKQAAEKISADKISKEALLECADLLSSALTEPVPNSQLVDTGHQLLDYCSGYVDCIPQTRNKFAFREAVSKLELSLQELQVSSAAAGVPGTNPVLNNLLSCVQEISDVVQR
T6 sequence (P00519 28-1130 limits assumed): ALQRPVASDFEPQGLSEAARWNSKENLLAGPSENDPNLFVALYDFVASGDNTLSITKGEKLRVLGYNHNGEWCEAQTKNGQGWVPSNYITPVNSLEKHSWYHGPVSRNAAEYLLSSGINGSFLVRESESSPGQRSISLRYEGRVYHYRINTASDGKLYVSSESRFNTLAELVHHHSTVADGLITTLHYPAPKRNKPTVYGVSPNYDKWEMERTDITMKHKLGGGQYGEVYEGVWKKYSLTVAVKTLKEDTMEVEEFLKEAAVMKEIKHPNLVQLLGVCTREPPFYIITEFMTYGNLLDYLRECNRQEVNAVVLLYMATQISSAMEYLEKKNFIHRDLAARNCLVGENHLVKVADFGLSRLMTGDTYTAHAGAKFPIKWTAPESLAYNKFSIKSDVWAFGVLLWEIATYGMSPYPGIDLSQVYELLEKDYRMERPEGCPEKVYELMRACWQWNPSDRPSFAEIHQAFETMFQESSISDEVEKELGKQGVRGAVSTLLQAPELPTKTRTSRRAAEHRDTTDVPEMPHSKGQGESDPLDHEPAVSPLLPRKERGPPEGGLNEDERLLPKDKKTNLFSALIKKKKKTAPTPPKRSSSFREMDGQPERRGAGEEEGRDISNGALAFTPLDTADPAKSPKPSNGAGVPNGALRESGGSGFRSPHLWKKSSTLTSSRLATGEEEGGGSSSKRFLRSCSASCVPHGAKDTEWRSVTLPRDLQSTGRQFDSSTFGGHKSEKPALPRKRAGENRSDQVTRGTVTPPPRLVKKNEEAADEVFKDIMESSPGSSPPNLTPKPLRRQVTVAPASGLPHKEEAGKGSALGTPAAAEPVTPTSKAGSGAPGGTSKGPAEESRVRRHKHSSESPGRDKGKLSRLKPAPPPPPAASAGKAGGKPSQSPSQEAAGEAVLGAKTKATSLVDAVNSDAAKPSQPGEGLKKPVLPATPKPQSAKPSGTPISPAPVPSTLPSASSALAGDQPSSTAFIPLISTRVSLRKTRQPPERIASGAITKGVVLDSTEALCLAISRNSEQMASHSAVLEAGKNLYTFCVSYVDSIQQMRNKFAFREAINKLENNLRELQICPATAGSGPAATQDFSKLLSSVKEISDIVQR
T2 sequence (Q2M2I8 whole entry): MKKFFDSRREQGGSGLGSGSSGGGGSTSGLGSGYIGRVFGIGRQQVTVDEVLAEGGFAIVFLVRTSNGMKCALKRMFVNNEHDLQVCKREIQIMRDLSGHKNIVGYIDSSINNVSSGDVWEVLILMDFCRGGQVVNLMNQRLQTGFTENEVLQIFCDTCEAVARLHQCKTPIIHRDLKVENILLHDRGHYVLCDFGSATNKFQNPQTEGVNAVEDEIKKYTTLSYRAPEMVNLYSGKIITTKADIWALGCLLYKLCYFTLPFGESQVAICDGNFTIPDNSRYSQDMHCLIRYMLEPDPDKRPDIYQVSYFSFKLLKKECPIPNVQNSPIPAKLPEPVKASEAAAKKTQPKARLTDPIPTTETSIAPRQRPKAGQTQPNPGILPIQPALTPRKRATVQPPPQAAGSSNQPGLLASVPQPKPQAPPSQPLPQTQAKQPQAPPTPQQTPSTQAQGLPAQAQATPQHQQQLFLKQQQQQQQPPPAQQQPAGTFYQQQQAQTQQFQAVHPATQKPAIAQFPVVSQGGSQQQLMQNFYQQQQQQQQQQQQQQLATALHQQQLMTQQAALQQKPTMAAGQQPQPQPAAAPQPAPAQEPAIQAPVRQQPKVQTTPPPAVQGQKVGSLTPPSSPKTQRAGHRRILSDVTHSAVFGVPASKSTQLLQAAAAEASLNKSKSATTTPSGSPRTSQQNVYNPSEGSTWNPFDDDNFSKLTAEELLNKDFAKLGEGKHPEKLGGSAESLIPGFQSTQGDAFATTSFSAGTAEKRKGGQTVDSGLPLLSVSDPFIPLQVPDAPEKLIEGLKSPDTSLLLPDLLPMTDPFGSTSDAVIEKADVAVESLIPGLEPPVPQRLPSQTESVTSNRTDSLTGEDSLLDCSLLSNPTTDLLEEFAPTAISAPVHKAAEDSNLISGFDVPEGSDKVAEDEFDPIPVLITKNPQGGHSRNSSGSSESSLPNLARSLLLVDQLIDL
T18 sequence (O75822 whole entry): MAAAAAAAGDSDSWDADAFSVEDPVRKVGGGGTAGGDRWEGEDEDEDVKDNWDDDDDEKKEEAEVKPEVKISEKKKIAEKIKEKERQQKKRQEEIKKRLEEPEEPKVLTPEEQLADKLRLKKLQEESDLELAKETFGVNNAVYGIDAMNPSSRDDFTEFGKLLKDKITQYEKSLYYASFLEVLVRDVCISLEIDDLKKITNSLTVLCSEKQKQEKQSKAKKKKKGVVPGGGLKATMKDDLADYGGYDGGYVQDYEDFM
T14 sequence (P67870 whole entry): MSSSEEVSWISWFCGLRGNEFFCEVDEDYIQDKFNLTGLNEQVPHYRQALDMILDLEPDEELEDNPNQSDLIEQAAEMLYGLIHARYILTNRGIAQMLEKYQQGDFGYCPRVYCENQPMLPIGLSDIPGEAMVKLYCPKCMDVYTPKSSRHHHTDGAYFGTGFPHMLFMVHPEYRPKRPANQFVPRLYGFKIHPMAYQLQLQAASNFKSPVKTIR

potency estimated from few doses [1]: 747 nM
Structure (SMILES): CNC(=O)c1cncc(/C=C/c2ccccc2Cl)c1 [GW445017X]

potency estimated from few doses (AAK1; sheet "Kinobeads Drugmatrix - all", unit inferred, same values below 1000 recur in sheet "nanomolar", read-out: Kinobeads Drugmatrix - all: apparent Kd, AAK1): 84.4 nM
CATDS (AAK1; sheet CATDS matrix 2, Gene Name AAK1): 0.03418
potency estimated from few doses (ABL2 [2]): 433 nM
potency estimated from few doses (ACAD11 [3]): > 1000 nM
selectivity in the Kinobeads assay (CATDSmost potent) [4]: unselective
CATDS (ACOX1): 0
CATDS (ABL1 [5]): 0
CATDS (ABL2 [6]): 0.01467
potency estimated from few doses (ABL1 [7]): > 1000 nM
CATDS (ACAD11 [8]): 0
Structure (SMILES): NCC(C(=O)Nc1cc(Br)c(-c2ccnc3[nH]ccc23)s1)c1ccccc1 (stereo not drawn) [GSK1269851A]

Structure (SMILES): Cc1ccc2c(NS(=O)(=O)c3ccccc3Cl)cccc2c1Oc1ncccc1-c1ccnc(N[C@H]2CCCNC2)n1 [AMG-18]
IC50 (XBP1 splicing in cells): 99 nM
Potency value (ERN1): 13 nM

Structure (SMILES): Cc1cccc(Nc2nc(N[C@H]3CCCC[C@H]3N)ncc2C(N)=O)c1 [GSK986310C]
IL-10 levels [9]: dose-dependent reduction
Kd (PAK4; [22]): 65.9 nM
EC50 (PAK4; eight-dose curve fit): 135 nM
Kd (PRKCA; [22]): 272 nM
EC50 (PRKCA; eight-dose curve fit): 446 nM

potency estimated from few doses [10]: 773 nM
Structure (SMILES): CNC(=O)c1cncc(/C=C/c2c(Cl)cccc2Cl)c1 [GW445014X]

potency estimated from few doses [11]: 423 nM
Structure (SMILES): CCS(=O)(=O)c1ccc(OC)c(Nc2ncc(-c3cccc(-c4ccccc4F)c3)o2)c1 [GW678313X]

Structure (SMILES): COc1cc(Nc2ccnc3cc(I)ccc23)cc(OC)c1OC [UNC-CA94]
in-cell target engagement PKN3 (PKN3): 1.3 µM

Structure (SMILES): CCN1C(C)(C)CC(Oc2ccc(C(=O)Nc3ccc(NC(=O)Nc4cc(C(C)(C)C)on4)cc3)nc2)CC1(C)C [AC710]
IC50 [12]: 2 nM
Potency value ([13]; 1st of 4 values listed for 5 targets): 0.5 nM
Potency value ([13]; 2nd of 4 values listed for 5 targets): 0.6 nM
Potency value ([13]; 3rd of 4 values listed for 5 targets): 1 nM
Potency value ([13]; 4th of 4 values listed for 5 targets): 1.3 nM

EC50 [14]: 16437.9
EC50 [15]: 295.4
EC50 [16]: 940.697
EC50 [17]: 1585.19
EC50 [18]: 4708.37
EC50 [19]: 1314.91
EC50 [20]: 1609.61
Structure (SMILES): c1cn2cc(-c3ccc4cn[nH]c4c3)nc(Nc3ccc(N4CCOCC4)cc3)c2n1 [entospletinib]
IL-10 levels [9]: dose-dependent reduction

Structure (SMILES): COc1cc(-c2nn([C@H]3CC[C@H](N4CCN(C(C)=O)CC4)CC3)c3ncnc(N)c23)ccc1NC(=O)c1cc2ccccc2n1C [Compound A-770041]
Potency value (LCK): 147 nM @ 1 mM ATP
EC50 [21]: 80 nM
